Laboratory results published in ChEMBL document CHEMBL3885881, “DrugMatrix”.

Species: Rattus norvegicus
Assay: DrugMatrix - Regimen: Daily Repeat
Type: toxicity, organism-based, Sprague-Dawley
Parameters: regimen Daily Repeat, gender Male, age 6-8 weeks
Conditions: in vivo, po, route oral GAVAGE, […]; for TOTAL PROTEIN / ALANINE AMINOTRANSFERASE / ALBUMIN / ALKALINE PHOSPHATASE / ASPARTATE AMINOTRANSFERASE / BLOOD UREA NITROGEN / CARBON DIOXIDE / CHLORIDE / CHOLESTEROL / CREATINE PHOSPHOKINASE / CREATININE / GLUCOSE / LACTATE DEHYDROGENASE / LIPASE / PHOSPHORUS / POTASSIUM / SODIUM / TOTAL BILIRUBIN: tissue Plasma; for ABSOLUTE BASOPHIL / ABSOLUTE EOSINOPHIL / ABSOLUTE LYMPHOCYTE / ABSOLUTE MONOCYTE / ABSOLUTE SEGMENTED NEUTROPHIL / BASOPHIL / EOSINOPHIL / ERYTHROCYTE COUNT / HEMATOCRIT / HEMOGLOBIN / LEUKOCYTE COUNT / LYMPHOCYTE / MEAN CORPUSCULAR HEMOGLOBIN / MEAN CORPUSCULAR HEMOGLOBIN CONCENTRATION / MEAN CORPUSCULAR VOLUME / MONOCYTE / NEUTROPHIL / NUCLEATED RED BLOOD CELLS / PLATELET COUNT: tissue Blood
[1] = 40 mg/kg, 120 h, dose level Low, time 5 day
[2] = 90 mg/kg, 72 h, dose level High, time 3 day
[3] = 90 mg/kg, 120 h, dose level High, time 5 day

## CN(C)CCCC1(c2ccc(F)cc2)OCc2cc(C#N)ccc21 (stereo not given) [CITALOPRAM]
40 mg/kg, 72 h, dose level Low, time 3 day
  TOTAL PROTEIN: 4.8 G/DL
[1]
  ABSOLUTE BASOPHIL: 0 CELLS/uL
  ABSOLUTE EOSINOPHIL: 0 CELLS/uL
  ABSOLUTE LYMPHOCYTE: 8782.67 CELLS/uL
  ABSOLUTE MONOCYTE: 193 CELLS/uL
  ABSOLUTE SEGMENTED NEUTROPHIL: 424.33 CELLS/uL
  BASOPHIL: 0%
  EOSINOPHIL: 0%
  ERYTHROCYTE COUNT: 5.43 x10E6/uL
  HEMATOCRIT: 34.67%
  HEMOGLOBIN: 13.13 G/DL
  LEUKOCYTE COUNT: 9.4 x10E3/uL
  LYMPHOCYTE: 93.67%
  MEAN CORPUSCULAR HEMOGLOBIN: 24.23 pg
  MEAN CORPUSCULAR HEMOGLOBIN CONCENTRATION: 37.87 G/DL
  MEAN CORPUSCULAR VOLUME: 63.9 fL
  MONOCYTE: 2%
  NEUTROPHIL: 4.33%
  NUCLEATED RED BLOOD CELLS: 0 /100WBC
  PLATELET COUNT: 1141.33 x10E3/uL
  ALANINE AMINOTRANSFERASE: 63 u/L
  ALBUMIN: 3.87 G/DL
  ALKALINE PHOSPHATASE: 433.67 u/L
  ASPARTATE AMINOTRANSFERASE: 95 u/L
  BLOOD UREA NITROGEN: 10.67 mg/dL
  CARBON DIOXIDE: 31.33 mmol/L
  CHLORIDE: 100.67 MEQ/L
  CHOLESTEROL: 73 mg/dL
  CREATINE PHOSPHOKINASE: 389.67 u/L
  CREATININE: 0.14 mg/dL
  GLUCOSE: 160 mg/dL
  LACTATE DEHYDROGENASE: 173.67 u/L
  LIPASE: 10.67 u/L
  PHOSPHORUS: 10.57 mg/dL
  POTASSIUM: 5.68 MEQ/L
  SODIUM: 145.67 MEQ/L
  TOTAL BILIRUBIN: 0.1 mg/dL
  TOTAL PROTEIN: 5.87 G/DL
[2]
  ABSOLUTE BASOPHIL: 0 CELLS/uL
  ABSOLUTE EOSINOPHIL: 0 CELLS/uL
  ABSOLUTE LYMPHOCYTE: 13332.67 CELLS/uL
  ABSOLUTE MONOCYTE: 32 CELLS/uL
  ABSOLUTE SEGMENTED NEUTROPHIL: 868.67 CELLS/uL
  BASOPHIL: 0%
  EOSINOPHIL: 0%
  ERYTHROCYTE COUNT: 5.39 x10E6/uL
  HEMATOCRIT: 34.6%
  HEMOGLOBIN: 13.63 G/DL
  LEUKOCYTE COUNT: 14.23 x10E3/uL
  LYMPHOCYTE: 93.67%
  MEAN CORPUSCULAR HEMOGLOBIN: 25.3 pg
  MEAN CORPUSCULAR HEMOGLOBIN CONCENTRATION: 39.4 G/DL
  MEAN CORPUSCULAR VOLUME: 64.2 fL
  MONOCYTE: 0.33%
  NEUTROPHIL: 6%
  NUCLEATED RED BLOOD CELLS: 0 /100WBC
  PLATELET COUNT: 1096.33 x10E3/uL
  ALANINE AMINOTRANSFERASE: 59.67 u/L
  ALBUMIN: 3.87 G/DL
  ALKALINE PHOSPHATASE: 376.33 u/L
  ASPARTATE AMINOTRANSFERASE: 89 u/L
  BLOOD UREA NITROGEN: 9.33 mg/dL
  CARBON DIOXIDE: 26.67 mmol/L
  CHLORIDE: 102.5 MEQ/L
  CHOLESTEROL: 65.67 mg/dL
  CREATINE PHOSPHOKINASE: 142.33 u/L
  CREATININE: 0.11 mg/dL
  GLUCOSE: 156 mg/dL
  LACTATE DEHYDROGENASE: 214.33 u/L
  PHOSPHORUS: 10.6 mg/dL
  POTASSIUM: 6.1 MEQ/L
  SODIUM: 145.75 MEQ/L
  TOTAL BILIRUBIN: 0.2 mg/dL
  TOTAL PROTEIN: 5.5 G/DL
[3]
  ABSOLUTE BASOPHIL: 0 CELLS/uL
  ABSOLUTE EOSINOPHIL: 0 CELLS/uL
  ABSOLUTE LYMPHOCYTE: 14553.33 CELLS/uL
  ABSOLUTE MONOCYTE: 322.67 CELLS/uL
  ABSOLUTE SEGMENTED NEUTROPHIL: 1290.67 CELLS/uL
  BASOPHIL: 0%
  EOSINOPHIL: 0%
  ERYTHROCYTE COUNT: 5.96 x10E6/uL
  HEMATOCRIT: 37.47%
  HEMOGLOBIN: 14.47 G/DL
  LEUKOCYTE COUNT: 16.17 x10E3/uL
  LYMPHOCYTE: 90.67%
  MEAN CORPUSCULAR HEMOGLOBIN: 24.33 pg
  MEAN CORPUSCULAR HEMOGLOBIN CONCENTRATION: 38.67 G/DL
  MEAN CORPUSCULAR VOLUME: 62.9 fL
  MONOCYTE: 2%
  NEUTROPHIL: 7.33%
  NUCLEATED RED BLOOD CELLS: 0 /100WBC
  PLATELET COUNT: 1137 x10E3/uL
  ALANINE AMINOTRANSFERASE: 40.33 u/L
  ALBUMIN: 4 G/DL
  ALKALINE PHOSPHATASE: 365 u/L
  ASPARTATE AMINOTRANSFERASE: 81.67 u/L
  CARBON DIOXIDE: 28.67 mmol/L
  CHLORIDE: 100 MEQ/L
  CHOLESTEROL: 70.33 mg/dL
  CREATINE PHOSPHOKINASE: 309.67 u/L
  CREATININE: 0.14 mg/dL
  GLUCOSE: 179.33 mg/dL
  LACTATE DEHYDROGENASE: 263 u/L
  LIPASE: 10.67 u/L
  PHOSPHORUS: 11.03 mg/dL
  POTASSIUM: 5.22 MEQ/L
  SODIUM: 145.33 MEQ/L
  TOTAL BILIRUBIN: 0.13 mg/dL
  TOTAL PROTEIN: 6.03 G/DL
